Patent publication US20100087385A1 (priority 2006, published 2010)

Test system: TNBS induced IBD rats
Experiment: Experiment III: TNBS-ethanol induced IBD in rats
Type: in vivo, Wistar rats
Details: for Colonic lesion score: CON 0, M 6.00 ± 3.25; for Colon weight of length: CON 0.106 ± 0.011, M 0.376 ± 0.133; for MDA / MPO / SOD: colon homogenate; for MDA: CON 0.0360 ± 0.00632, M 0.0274 ± 0.0055; for MPO: CON 21.993 ± 2.061, M 134.038 ± 1.979; for SOD: CON 46.400 ± 8.202, M 38.005 ± 4.121
Source text: Wister rats were randomly divided into seven groups. There are four […] in each group, including normal control (CON) group, Model (M) group, positive control (SASP) group, diammonium glycyrrhizinate gavage administration (DI) group, diammonium glycyrrhizinate low dose (DGD) group, diammonium glycyrrhizinate medium dose (DGZ) group, and diammonium glycyrrhizinate high dose (DGG) group. No water and diets restriction were applied to mice during the period of the experiment.
Rats were anesthetized by ether. TNBS dissolved in 30% ethanol were injected into rat colon 8 cm in depth through anus with an i.v. tubing. The concentration of TNBS was 100 mg/Kg at the volumes of 0.20 ml/100 g. The rats were held up side down for 1 minute after the injection before released back to the cages.
There are seven groups total in this test. Rats in all groups were treated identically to create IBD models and the experimental conditions are described in the following.
Normal control (Con) group: Both TNBS-ethanol solution and treated drugs were replaced by normal saline. The dose of drug for treatment was 0.20 ml/100 g. Model (M) group: After creating the TNBS-ethanol induced IBD model in rats, normal saline instead of drug was used as a blank control for the comparison of drug treatment. The drug dose of IBD treatment was 0.20 ml/100 g. SASP group: SASP (22.5 mg/100 g) was used as a positive control. SASP was applied to rats through anus after ether anesthesia. Diammonium glycyrrhetate gavage administration (DI) group: Diammonium glycyrrhetate (10 mg/kg) was provided to rats by gavage after ether anesthesia. Diammonium glycyrrhetate, anal administration, low dose (DGD) group: Diammonium glycyrrhetate (2 mg/kg) was provided to rats through anus after ether anesthesia. Diammonium glycyrrhetate, anal administration, medium dose (DGZ) group: Diammonium glycyrrhetate (10 mg/kg) was provided to rats through anus after ether anesthesia. Diammonium glycyrrhetate, anal administration, high dose (DGG) group: Diammonium glycyrrhetate (50 mg/kg) was provided to rats through anus after ether anesthesia.
During the experimental period, daily activities and body weights of rats were investigated and recorded. Ten days after IBD model establishment, fasting was introduced to rats but water was provided continuously. Before sacrificing the rats, feces samples were taken for OB test; eyeballs were removed for blood sampling and serum samples were obtained after centrifugation. Radioimmunoassay kits were used to detect IL-1β, IL-6 and TNF-α in serum. The rats were cervical executed; organs of spleen and thymus were removed and weighted for the index calculation. The whole length of colon was weighted; weight per unit length of colon was calculated. The degrees of colon injury were evaluated according to the reference 23 with some modifications. We included the changes of intestinal adhesion, colon ulcer, and inflammatory as the score marks. The standard of score is same as we mentioned previously. The 3 mm colon samples were taken from the end part of colon; fixed by either neutral formaldehyde solution or 2.5% of glutaraldehyde solution for anatomy dissecting. The samples fixed by neutral formaldehyde solution were sent to perform H-E staining and immunohistochemical staining (IL-10, COX-II, and ICAM-1). The samples fixed by 2.5% of glutaraldehyde solution were photo-imaged by both scanning electron microscope and transmission electron microscope. The rest of samples were handled at ice-cold temperature to make 10% homogenization solution and stored at −20° C. for future use. MOP, SOD, MDA and amounts of tissue proteins were determined by Maehly, Pyrogallol, TBA, and Lowry methods.

[1] = DG medium dose group, through anus 10 mg/kg
[2] = DGD group: through anus, low dose 2 mg/kg
[3] = DGG group: through anus, high dose 50 mg/kg
[4] = DGZ group: through anus, medium dose 10 mg/kg
[5] = SASP group: 22.5 mg/100 g through anus
[6] = positive control (SASP) group: 22.5 mg/100 g through anus

CC1(C(=O)[O-])CCC2(C)CCC3(C)C(=CC(=O)C4C5(C)CCC([O-])C(C)(C)C5CCC43C)C2C1.[Na+].[Na+] (stereo not shown) [Disodium glycyrrhetate, disodium glycyrrhetate]
HE staining of colon tissue (FIG. 3) (DG gavage administration group, 10 mg/kg): less severe of symptoms with no ulcer formation | HE staining of colon tissue (FIG. 3) (DG high dose group, through anus 50 mg/kg): relieved symptoms and no ulcer formation is observed | HE staining of colon tissue (FIG. 3) (DG low dose group, through anus 2 mg/kg): relatively severe symptoms but without ulcer formation | HE staining of colon tissue (FIG. 3) [1]: no ulcer formation is seen | colon mucosa by scanning electron microscope (FIG. 4) [1]: relieved symptoms with less swelling | Colonic lesion score (DGD group: through anus, low dose 2 mg/kg (table head: mg/100 g)): 3.00 ± 1.69^ΔΔ | Colon weight of length [2]: 0.385 ± 0.218 g/cm | Colonic lesion score (DGG group: through anus, high dose 50 mg/kg (table head: mg/100 g)): 1.50 ± 0.89^ΔΔ | Colon weight of length [3]: 0.174 ± 0.059 g/cm | Colonic lesion score (DGZ group: through anus, medium dose 10 mg/kg (table head: mg/100 g)): 2.50 ± 1.39^ΔΔ | Colon weight of length [4]: 0.177 ± 0.065 g/cm | Colonic lesion score (DI group: gavage, 10 mg/kg (table head: mg/100 g)): 2.00 ± 1.20^ΔΔ | Colon weight of length (DI group: gavage, 10 mg/kg): 0.240 ± 0.085 g/cm | MDA [2]: 0.0431 ± 0.0243 µmol/mg | MPO [2]: 141.993 ± 2.494 U/g | SOD [2]: 28.847 ± 16.942 U/ml | MDA [3]: 0.0338 ± 0.0115 µmol/mg | MPO [3]: 111.753 ± 24.864 U/g | SOD [3]: 59.984 ± 3.205^Δ U/ml | MDA [4]: 0.0365 ± 0.0151 µmol/mg | MPO [4]: 83.868 ± 16.465^Δ U/g | SOD [4]: 46.095 ± 8.065 U/ml | MDA (DI group: gavage, 10 mg/kg): 0.0907 ± 0.0302 µmol/mg | MPO (DI group: gavage, 10 mg/kg): 100.576 ± 10.137^ΔΔ U/g | SOD (DI group: gavage, 10 mg/kg): 18.774 ± 8.700 U/ml

O=C(O)c1cc(/N=N/c2ccc(S(=O)(=O)Nc3ccccn3)cc2)ccc1O [SASP, Sulfasalazine, reference compound]
Colonic lesion score [5]: 3.00 ± 1.69^ΔΔ | Colon weight of length [5]: 0.354 ± 0.087 g/cm | Thymus index (SASP group: 22.5 mg/100 g through anus, CON 0.9302 ± 0.0984, M 0.0319 ± 0.1504): 0.2375 ± 0.0792 mg/g | Spleen index (SASP group: 22.5 mg/100 g through anus, CON 2.309 ± 0.135, M 3.893 ± 0.210): 3.326 ± 0.552 mg/g | MDA [5]: 0.0594 ± 0.0287 µmol/mg | MPO [5]: 44.916 ± 3.525^ΔΔ U/g | SOD [5]: 33.884 ± 2.656 U/ml | HE staining of colon tissue (FIG. 3) [6]: symptoms are reduced with no ulcers formation | colon mucosa by scanning electron microscope (FIG. 4) [6]: symptoms were relieved but with swelling in mucosa layer
